# Test results as given in patent US20260234188A1, “CHEMOKINE-BINDING PEPTIDES” (Oxford University Innovation Limited, priority 2022, published 2026).
# “Also recorded” adds a separate entry of the source.
# Test system: panel of up to 42 human chemokines
# Test: Phage-display next generation sequencing screen of overlapping hexadecapeptide libraries, chemokines displayed on streptavidin beads
# Format: binding
# From the text: FIG. 1. Exemplar results from phage display screens. Phage-display libraries were constructed and analysed as described in (McLaughlin, 2013) (Tonikian, 2007). […] FIG. 1A, CC chemokines against evasin A library. FIG. 1B, CXC chemokines against the evasin B library. FIG. 1C, CXC and CX3C chemokines against the viral chemokine binding protein library. FIG. 1D, CXC chemokines against the chemokine library. […] Identified hexadecapeptides were mapped to the position in the originating protein (x-axis) and to fold enrichment (log 2 E, left y-axis). Regions of interest (ROI) were defined where the cumulative residue log 2 E, (clog 2 E:r, right y-axis) exceeds the 95% upper confidence interval of the median clog 2 E:r for the entire protein (indicated as a horizontal dotted line in each panel). Proteins are referred to by their UniProt ID.
# Hexadecapeptides were identified using a phage-display next generation sequencing approach (McLaughlin, 2013). Libraries containing a total of 55662 overlapping peptides (from the tick chemokine binding proteins shown in Tables 3A and 3B, the viral chemokine binding proteins shown in Table 3C, the human chemokines shown in Table 3 E, and the human/viral chemokine receptors and other chemokine-binding proteins shown in Table 3D) were first constructed, and then screened against a panel of up to 42 human chemokines, as shown in Table 3F.
# [1] = log2E greater than 5, chemokines named by first part of UniProt entry name, C5a (control) binders excluded
# [2] = log2E greater than 5, chemokines named by first part of UniProt Entry Name
# [3] = log2E greater than 5, chemokines named by first part of UniProt Entry Name, peptides binding complement C5a (control) excluded
Substance,Chemokines Bound [1],Chemokines Bound [2],Chemokines Bound [3]
CR15801 (MSFFSGMLLLLCISID),"CCL18, CCL20, and SDF1",,
CR5246 (FIGIKIVYSFLWGIFP),,"CCL20, CCL22,; also recorded: X3CL1, CXL10,; also recorded: CXL11",
CR8784 (IFAIVVAYFLSWGPYN),,,"CCL1, CCL15, and CCL17, CCL18, and CCL2, CCL20, and CCL22, CCL25, and CCL28, X3CL1, and CXL10, CXL11, and SDF1, CXL14, and IL8"
CR14365 (LSLSISLLAEVLMFLF),"CCL11, CCL19,; also recorded: CCL28, SDF1,; also recorded: CXL13, IL8",,
CR5511 (FLGILGNGLVIIIATF),,"CCL20, CCL22, and SDF1",
CR8496 (HWGWVLGDFLCKLLNM),,,"CCL11, CCL17, and CCL18, CCL19, and CCL20, CCL22, and CCL25, CCL28, and X3CL1, CXL10, and CXL11, SDF1, and CXL13, CXL14, and IL8"
CR5737 (FLVVVYSIVSFLGILG),,,"CCL17, CCL18,; also recorded: CCL19, CCL2,; also recorded: CCL20, CCL22,; also recorded: CCL25, CCL28,; also recorded: X3CL1, CXL10,; also recorded: CXL13, CXL14"
CR18714 (QYLKAFLAAVLGWHLA),"CCL18, CCL28,; also recorded: CXL13, CXL14",,
CR27049 (YDLFIGIKIVYAFLWG),,"CCL1, CCL18, and CCL22, CCL25, and IL8",
CR20481 (SGIFFIILLTIDRYLA),"CCL1, CCL19,; also recorded: CCL20, CCL22,; also recorded: CCL25, CCL28,; also recorded: X3CL1, CXL10,; also recorded: CXL11, SDF1",,
CK6066 (VCADPSESWVQEYVYD),"CCL19, CCL28,; also recorded: X3CL1, IL8",,
CR11907: chemokine binding peptide of Table 5A used in FIG. 5 combinations (LDFILALVGNTLALWL),"CCL11, CCL18, and CCL2",,
CR6098 (FSIIAVFYFLLARAIS),,,"CCL17, CCL20,; also recorded: CCL22, CXL10,; also recorded: CXL11, CXL13,; also recorded: CXL14, IL8"
CK4643 (RITNIQCPKEAVIFKT),"CCL1, CCL19,; also recorded: CCL20",,
CR16988 (NVTFTGLIAAFSWFML),"CCL17, CCL18,; also recorded: CCL20, CCL22,; also recorded: CCL25, CCL28,; also recorded: CXL10, SDF1,; also recorded: CXL14",,
CR6489 (FWAVDAVANWYFGNFL),,,"CCL17, CCL18, and CCL22, CCL28, and CXL10, CXL14, and IL8"
CR7000 (GIFFIILLTIDRYLAV),,,"CCL17, X3CL1,; also recorded: CXL10"
CR22271 (SWIISFSVWMAAILLS),"CCL1, CCL17,; also recorded: CXL10",,

Substance,Chemokines Bound [1],Chemokines Bound [2],Chemokines Bound [3]
CR28005 (YVSTLDFAIVFILMII),,"CCL17, CCL18,; also recorded: CCL19, CCL20,; also recorded: CCL22, CCL28,; also recorded: X3CL1, CXL10,; also recorded: CXL11, SDF1,; also recorded: CXL13",
EB2905 (SACSGDCVCVHRDNEP),,,"CXL10, CXL11, and SDF1"
CR4465 (ESLFSALVTLITSLFG),,"CCL18, CCL8,; also recorded: CXL10",
CR7024 (GIITSVLAWVTAILAT),,,"CCL2, CCL22,; also recorded: CCL28, CXL10,; also recorded: CXL11, SDF1,; also recorded: CXL13, IL8"
CR24367 (VCILVWLLAFCVSLPD),,"CCL11, CCL17,; also recorded: CCL18, CCL19,; also recorded: CCL20, CCL22,; also recorded: CCL25, CCL28,; also recorded: CXL10, CXL11,; also recorded: SDF1, CXL13,; also recorded: CXL14, IL8",
CR9587 (IMYSIIAFVGLLGNGL),,,"CCL17, CCL18,; also recorded: CCL20, CXL14"
CR6623 (FYYIGFYSSMFFITLM),,,"CCL1, CCL17,; also recorded: CCL18, CCL19,; also recorded: CCL20, CCL22,; also recorded: CCL28, X3CL1,; also recorded: CXL10, CXL11,; also recorded: SDF1, CXL14"
CR25167 (VLGLLLNSLALWVFSS),,"CCL11, CCL17,; also recorded: CCL18, CXL11,; also recorded: CXL14",
CR25375 (VLVIGSLVARWLLGIQ),,"CCL18, CCL19,; also recorded: CCL20",
CR22736 (TFGVVTSVITWLVAVF),"CCL1, CCL11, and CCL17, CCL18, and CCL2, CCL25, and CCL28, CCL8, and X3CL1, CXL10, and CXL11, SDF1, and CXL13, CXL14, and IL8",,
CR26721 (WSLVFMAIERINYFAY),,"CCL17, CCL18,; also recorded: CXL10",
CR26667 (WNNFHTIMRNILGLVL),,"CCL17, CCL18,; also recorded: CXL14",
CR4463 (ESLFAALVTLITSLFG),,"CCL1, CCL17,; also recorded: CCL18, CCL2,; also recorded: X3CL1, CXL10,; also recorded: CXL11, IL8",
CR21168 (SLVFIFGFVGNMLVIL),"CCL1, CCL22,; also recorded: CCL28, CXL10,; also recorded: CXL13, CXL14",,
CR21238: chemokine binding peptide of Table 5A used in FIG. 5 combinations (SMILESLFSALVTLIT),"CCL2, CXL11, and IL8",,
CR6324 (FTWNLVLSQFFSILAT),,,"CCL11, CCL28,; also recorded: X3CL1, CXL11,; also recorded: CXL13"
CR5245 (FIGIKIVYCFLWGIFP),,"CCL1, CCL15,; also recorded: CCL17, CCL18,; also recorded: CCL19, CCL20,; also recorded: CCL22, CCL25,; also recorded: CCL28, X3CL1,; also recorded: CXL10, CXL11,; also recorded: SDF1, CXL13,; also recorded: CXL14, IL8",
